# Results published in patent publication US4321265A, “7α-Methoxycephalosporins” (Toyama Chemical Co., Ltd., priority 1977, dated 1982).
# Legend:
# Test in all cases: Minimum inhibitory concentration (MIC), Heart Infusion agar
# Assay type in all cases: cell-based
# [1] = test system: Acinetobacter caloaceticus A-6; conditions: A6; Acinetobacter caloaceticus A-6; 10^6 cells/ml; 20 hours, 37° C.; read-out: minimum inhibitory concentration (MIC)
# Experimental: (§1) Antibacterial activities of the representative compounds (Ib) of the 7α-methoxycephalosporins according to this invention are shown in Table 1. [drawing 20]
# (§2) The figures given in Table 1 represent the minimum inhibitory concentration (MIC in mcg/ml) of each compound, which was determined according to the method described in "Chemotherapy (Society of Chemotherapy, Japan), Vol. 16, 98-99 (1968)": A culture obtained by cultivating the test bacterium in a Heart Infusion broth (Eiken Kagaku Co.) was inoculated into a Heart Infusion agar medium (Eiken Kagaku Co.). After 20 hours of the incubation at 37° C., the growth of the bacterium was inspected to determine the minimum inhibitory concentration (MIC in mcg/ml). The inoculation rate of the bacterium was 10^4 cells/plate (10^6 cells/ml).
# (§3) (1) Minimum inhibitory concentration (MIC in mcg/ml).
# Citrobacter N-7 = conditions: N7; Citrobacter N-7; 10^6 cells/ml; 20 hours, 37° C.; read-out: minimum inhibitory concentration (MIC)
# Experimental: as §1, §2, §3
# E. coli NIHJ = conditions: Escherichia coli; E. coli NIHJ; 10^6 cells/ml; 20 hours, 37° C.; read-out: minimum inhibitory concentration (MIC)
# Experimental: as §1, §2, §3
# Ent. cloacae IID977 = conditions: Enterobacter cloacae; Ent. cloacae IID977; 10^6 cells/ml; 20 hours, 37° C.; read-out: minimum inhibitory concentration (MIC)
# Experimental: as §1, §2, §3
# K. pneumoniae Y-50 = conditions: Klebsiella pneumoniae, Y50; K. pneumoniae Y-50; 10^6 cells/ml; 20 hours, 37° C.; read-out: minimum inhibitory concentration (MIC)
# Experimental: as §1, §2, §3
# Klebsiella spp. Y-72 = conditions: SPP.Y72; Klebsiella spp. Y-72; 10^6 cells/ml; 20 hours, 37° C.; read-out: minimum inhibitory concentration (MIC)
# Experimental: as §1, §2, §3
# Prot. vulgaris GN-76 = conditions: Proteus vulgaris, GN76; Prot. vulgaris GN-76; 10^6 cells/ml; 20 hours, 37° C.; read-out: minimum inhibitory concentration (MIC)
# Experimental: as §1, §2, §3
# Ps. aeruginosa IFO-3445 = conditions: Pseudomonas aeruginosa, IFO3445; Ps. aeruginosa IFO-3445; 10^6 cells/ml; 20 hours, 37° C.; read-out: minimum inhibitory concentration (MIC)
# Experimental: as §1, §2, §3
# Ps. aeruginosa S-68 = conditions: Pseudomonas aeruginosa, S68; Ps. aeruginosa S-68; 10^6 cells/ml; 20 hours, 37° C.; read-out: minimum inhibitory concentration (MIC)
# Experimental: as §1, §2, §3
# [2] = test system: S. aureus F-19 (Penicillinase-producing bacterium); conditions: Staphylococcus aureus; S. aureus F-19; 10^6 cells/ml; 20 hours, 37° C.; read-out: minimum inhibitory concentration (MIC)
# Experimental: as §1, §2, §3
# Ser. marcescens IID620 = conditions: Serratia marcescens; Ser. marcescens IID620; 10^6 cells/ml; 20 hours, 37° C.; read-out: minimum inhibitory concentration (MIC)
# Experimental: as §1, §2, §3
# Ser. marcescens W-8 = conditions: Serratia marcescens, W8; Ser. marcescens W-8; 10^6 cells/ml; 20 hours, 37° C.; read-out: minimum inhibitory concentration (MIC)
# Experimental: as §1, §2, §3
# Ser. marcescens W-35 = conditions: Serratia marcescens, W35, 20 h, Ser. marcescens W-35; 10^6 cells/ml; 20 hours, 37° C. (Table 1); read-out: minimum inhibitory concentration (MIC)
# Experimental: as §1
# as §2, with “The inoculation rate of the bacterium was 10^4 cells/plate (10^6 cells/ml).” left out
# as §3
# [3] = test system: C. freundii GN-346 (Cephalosporinase-producing bacterium); conditions: Citrobacter freundii, GN346; C. freundii GN-346; 10^6 cells/ml; 20 hours, 37° C.; read-out: minimum inhibitory concentration (MIC)
# Experimental: as §1, §2, §3
Compound,MIC [1],MIC (Citrobacter N-7),MIC (E. coli NIHJ),MIC (Ent. cloacae IID977),MIC (K. pneumoniae Y-50),MIC (Klebsiella spp. Y-72),MIC (Prot. vulgaris GN-76),MIC (Ps. aeruginosa IFO-3445),MIC (Ps. aeruginosa S-68),MIC [2],MIC (Ser. marcescens IID620),MIC (Ser. marcescens W-8),MIC (Ser. marcescens W-35),MIC [3]
CCN1CCN(C(=O)NC(C(=O)N[C@]2(OC)C(=O)N3C(C(=O)O)=C(CSc4nnnn4CC(N)=O)CS[C@@H]32)c2cccs2)C(=O)C1=O (some centres unmarked),6.25 µg/mL,3.13 µg/mL,≤ 0.1 µg/mL,12.5 µg/mL,0.39 µg/mL,1.56 µg/mL,0.78 µg/mL,12.5 µg/mL,12.5 µg/mL,3.13 µg/mL,0.2 µg/mL,25 µg/mL,12.5 µg/mL,
CCN1CCN(C(=O)NC(C(=O)N[C@]2(OC)C(=O)N3C(C(=O)O)=C(CSc4nnn(CCN(C)C)n4)CS[C@@H]32)c2cccs2)C(=O)C1=O (some centres unmarked),25 µg/mL,3.13 µg/mL,≤ 0.1 µg/mL,25 µg/mL,0.78 µg/mL,,3.13 µg/mL,50 µg/mL,,6.25 µg/mL,0.2 µg/mL,50 µg/mL,,25 µg/mL
CCN1CCN(C(=O)NC(C(=O)N[C@]2(OC)C(=O)N3C(C(=O)O)=C(CSc4nnnn4CCN(C)C)CS[C@@H]32)c2cccs2)C(=O)C1=O (some centres unmarked),12.5 µg/mL,6.25 µg/mL,≤ 0.1 µg/mL,25 µg/mL,0.78 µg/mL,12.5 µg/mL,1.56 µg/mL,50 µg/mL,25 µg/mL,6.25 µg/mL,0.39 µg/mL,50 µg/mL,50 µg/mL,25 µg/mL
CCN1CCN(C(=O)NC(C(=O)N[C@]2(OC)C(=O)N3C(C(=O)O)=C(CSc4nncs4)CS[C@@H]32)c2cccs2)C(=O)C1=O (some centres unmarked),12.5 µg/mL,12.5 µg/mL,≤ 0.1 µg/mL,100 µg/mL,0.39 µg/mL,1.56 µg/mL,0.78 µg/mL,25 µg/mL,25 µg/mL,6.25 µg/mL,0.78 µg/mL,25 µg/mL,12.5 µg/mL,100 µg/mL
C=Cn1nnnc1SCC1=C(C(=O)O)N2C(=O)[C@](NC(=O)C(NC(=O)N3CCN(CC)C(=O)C3=O)c3cccs3)(OC)[C@H]2SC1 (some centres unmarked),12.5 µg/mL,3.13 µg/mL,≤ 0.1 µg/mL,25 µg/mL,0.39 µg/mL,6.25 µg/mL,0.78 µg/mL,25 µg/mL,12.5 µg/mL,3.13 µg/mL,0.2 µg/mL,25 µg/mL,12.5 µg/mL,12.5 µg/mL
CCN1CCN(C(=O)NC(C(=O)N[C@]2(OC)C(=O)N3C(C(=O)O)=C(CSc4nnnn4CC(=O)NO)CS[C@@H]32)c2cccs2)C(=O)C1=O (some centres unmarked),1.56 µg/mL,50 µg/mL,≤ 0.1 µg/mL,200 µg/mL,1.56 µg/mL,100 µg/mL,0.78 µg/mL,12.5 µg/mL,25 µg/mL,25 µg/mL,0.78 µg/mL,100 µg/mL,200 µg/mL,≥ 200 µg/mL
CCN1CCN(C(=O)NC(C(=O)N[C@]2(OC)C(=O)N3C(C(=O)O)=C(CSc4nnnn4C)CS[C@@H]32)c2ccco2)C(=O)C1=O (some centres unmarked),12.5 µg/mL,,≤ 0.1 µg/mL,25 µg/mL,0.2 µg/mL,6.25 µg/mL,0.78 µg/mL,12.5 µg/mL,25 µg/mL,6.25 µg/mL,≤ 0.1 µg/mL,100 µg/mL,12.5 µg/mL,25 µg/mL
CCN1CCN(C(=O)NC(C(=O)N[C@]2(OC)C(=O)N3C(C(=O)O)=C(CSc4nnnn4CC(N)=O)CS[C@@H]32)c2csc(N)n2)C(=O)C1=O (some centres unmarked),12.5 µg/mL,,≤ 0.1 µg/mL,,,,1.56 µg/mL,12.5 µg/mL,,3.13 µg/mL,≤ 0.1 µg/mL,,,

# Now from value to compound:
MIC [1],MIC (Citrobacter N-7),MIC (E. coli NIHJ),MIC (Ent. cloacae IID977),MIC (K. pneumoniae Y-50),MIC (Klebsiella spp. Y-72),MIC (Prot. vulgaris GN-76),MIC (Ps. aeruginosa IFO-3445),MIC (Ps. aeruginosa S-68),MIC [2],MIC (Ser. marcescens IID620),MIC (Ser. marcescens W-8),MIC (Ser. marcescens W-35),MIC [3],Compound
12.5 µg/mL,3.13 µg/mL,≤ 0.1 µg/mL,50 µg/mL,0.78 µg/mL,3.13 µg/mL,0.78 µg/mL,12.5 µg/mL,12.5 µg/mL,6.25 µg/mL,0.2 µg/mL,50 µg/mL,6.25 µg/mL,25 µg/mL,CCN1CCN(C(=O)NC(C(=O)N[C@]2(OC)C(=O)N3C(C(=O)O)=C(CSc4nnnn4CCN)CS[C@@H]32)c2cccs2)C(=O)C1=O (some centres unmarked)
12.5 µg/mL,6.25 µg/mL,≤ 0.1 µg/mL,25 µg/mL,0.78 µg/mL,6.25 µg/mL,0.78 µg/mL,25 µg/mL,12.5 µg/mL,3.13 µg/mL,0.2 µg/mL,50 µg/mL,25 µg/mL,50 µg/mL,CCN1CCN(C(=O)NC(C(=O)N[C@]2(OC)C(=O)N3C(C(=O)O)=C(CSc4nnnn4CC(C)=NO)CS[C@@H]32)c2cccs2)C(=O)C1=O (some centres unmarked)
25 µg/mL,6.25 µg/mL,≤ 0.1 µg/mL,50 µg/mL,0.39 µg/mL,6.25 µg/mL,0.78 µg/mL,25 µg/mL,25 µg/mL,6.25 µg/mL,0.2 µg/mL,50 µg/mL,25 µg/mL,25 µg/mL,CCN1CCN(C(=O)NC(C(=O)N[C@]2(OC)C(=O)N3C(C(=O)O)=C(CSc4nnnn4CC(C)=O)CS[C@@H]32)c2cccs2)C(=O)C1=O (some centres unmarked)
,,≤ 0.1 µg/mL,25 µg/mL,0.2 µg/mL,,1.56 µg/mL,12.5 µg/mL,,6.25 µg/mL,≤ 0.1 µg/mL,,6.25 µg/mL,,CCN1CCN(C(=O)NC(C(=O)N[C@]2(OC)C(=O)N3C(C(=O)O)=C(CSc4nnnn4CC(N)=O)CS[C@@H]32)c2ccco2)C(=O)C1=O (some centres unmarked)
,,≤ 0.1 µg/mL,25 µg/mL,0.2 µg/mL,,1.56 µg/mL,12.5 µg/mL,,6.25 µg/mL,≤ 0.1 µg/mL,,,,CCN1CCN(C(=O)NC(C(=O)N[C@]2(OC)C(=O)N3C(C(=O)O)=C(CSc4nnnn4CCO)CS[C@@H]32)c2ccco2)C(=O)C1=O (some centres unmarked)
,,≤ 0.1 µg/mL,25 µg/mL,0.2 µg/mL,,3.13 µg/mL,25 µg/mL,,3.13 µg/mL,≤ 0.1 µg/mL,,,,C=Cn1nnnc1SCC1=C(C(=O)O)N2C(=O)[C@](NC(=O)C(NC(=O)N3CCN(CC)C(=O)C3=O)c3ccco3)(OC)[C@H]2SC1 (some centres unmarked)
25 µg/mL,1.56 µg/mL,≤ 0.1 µg/mL,25 µg/mL,0.2 µg/mL,1.56 µg/mL,0.78 µg/mL,12.5 µg/mL,25 µg/mL,3.13 µg/mL,≤ 0.1 µg/mL,100 µg/mL,,50 µg/mL,CCN1CCN(C(=O)NC(C(=O)N[C@]2(OC)C(=O)N3C(C(=O)O)=C(CSc4nnnn4C)CS[C@@H]32)c2csc(N)n2)C(=O)C1=O (some centres unmarked)
25 µg/mL,,≤ 0.1 µg/mL,,,,3.13 µg/mL,25 µg/mL,,6.25 µg/mL,0.39 µg/mL,,,,CCN1CCN(C(=O)NC(C(=O)N[C@]2(OC)C(=O)N3C(C(=O)O)=C(CSc4nnc(C)s4)CS[C@@H]32)c2csc(N)n2)C(=O)C1=O (some centres unmarked)
25 µg/mL,,≤ 0.1 µg/mL,,,,3.13 µg/mL,25 µg/mL,,6.25 µg/mL,0.39 µg/mL,,,,CCN1CCN(C(=O)NC(C(=O)N[C@]2(OC)C(=O)N3C(C(=O)O)=C(COC(C)=O)CS[C@@H]32)c2csc(N)n2)C(=O)C1=O (some centres unmarked) [OCOCH3]
